Consider three compounds from patent publication US8785451B2, “Compounds for the treatment of proliferative disorders” (Synta Pharmaceuticals Corp., priority 2006, dated 2014).

The subject of this assay is inducible human Hsp70. Description: Hsp70 RNA induction by quantitative PCR analysis. It counts as cell-based. Conditions: Ramos B cells, 500 nM compound, 6 hours, Hsp70 RNA relative to gapdh; for fold induction at 0.5 µM: Homo sapiens, read-out: fold induction over DMSO; for % induction relative to Compound X: Compound X set to 100%. As to the method: The ability of the compounds of the invention to induce Hsp70 RNA induction by quantitative PCR analysis was examined. Ramos B cells were treated with 500 nM each compound for 6 hours and the RNA was isolated from the cells. Quantitative PCR was performed as described below:
Details for Quantitative PCR are as follows:
500 ng of RNA from each sample was used for cDNA synthesis using iScript cDNA Synthesis Kit (Biorad, Cat#170-8891). 1 ul of cDNA mixture was used with the iQ SYBR Green Supermix (Biorad, Cat#170-8882) to perform quantitative PCR in an iCycler machine (Biorad) using standard protocols. QPCR for each sample/time point was performed in duplicate. The following primers for inducible human Hsp70 and gapdh were used: […]
Ct values were obtained from the iCycler program and used in an equation (2^−ΔΔCT) for determining the amount of target relative to gapdh expression. This compares the relative expression of Hsp70 to the corresponding levels of gapdh in each sample. Duplicate wells were averaged. The amount of N-Malonyl-bis(N′-methyl-N′ thiobenzoylhydrazide) (Compound X) induction of Hsp70 was set to 100% and the percent of induction of Hsp70 by the compounds of the invention was determined relative to 100%.

SMILES strings stand for the structures.

On to `CN(/N=C/c1cccc(/C=N/N(C)C(=S)c2ccccc2)n1)C(=S)c1ccccc1` [Compound 16, (N′,N″E,N′,N″E)-N′,N″-(pyridine-2,6-diylbis(methan-1-yl-1-ylidene))bis(N-methylbenzothiohydrazide)], for which the fold induction at 0.5 µM amounted to 0.48 and the “% induction relative to Compound X” value was determined as 0.18%.

Turning to `CN(/N=C/c1cccc(/C=N/N(C)C(=S)c2ccccc2)c1)C(=S)c1ccccc1` [Compound 17, (N′,N″E,N′,N″E)-N′,N″-(1,3-phenylenebis(methan-1-yl-1-ylidene))bis(N-methylbenzothiohydrazide)], the fold induction at 0.5 µM stood at 0.54 and the “% induction relative to Compound X” value was determined as 0.20%.

In the case of `CN(/N=C1\CCC/C(=N\N(C)C(=S)c2ccccc2)C1)C(=S)c1ccccc1` [Compound 22, (N′,N″E,N′,N″E)-N′,N″-(cyclohexane-1,3-diylidene)bis(N-methylbenzothiohydrazide)], the fold induction at 0.5 µM is 0.16 and the “% induction relative to Compound X” value worked out at 0.06%.
